Data taken from the supplement of paper PMC10307832.

Legend:
Assay in all cases: relative viability (nuclei count vs DMSO), 5 days (fraction); higher = more cells survive
Hydroxychloroquine = compound: CCN(CCO)CCCC(C)Nc1ccnc2cc(Cl)ccc12 [Hydroxychloroquine]
Method in brief: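 On vehicle-anchored 1536-well plates, lung cancer cell lines held overnight at 37 °C were pinned with five library-drug doses (not always all listed) spaced by √10. With no medium change over 5 days, they were then fixed, permeabilised and Hoechst-stained in one step and imaged at 4×. MetaXpress counted nuclei, and viability is the median across plates of treated-well over vehicle-well nuclei. Acceptance needed control CV below 25% and at least one doubling.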

[1] = compound: CCN(CCO)CCCC(C)Nc1ccnc2cc(Cl)ccc12 [Hydroxychloroquine] + CC(C)C[C@H](NC(=O)[C@H](Cc1ccccc1)NC(=O)c1cnccn1)B(O)O [Bortezomib] (partner 0.002 µM)
Method in brief: (§1)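 Lung cancer cell lines were seeded in 1536-well plates and dosed by pin tool the next day, with either a single drug or a fixed anchor-drug dose combined with five library-drug doses (not always all listed) spaced in √10 steps. Five days later, one step fixed the cells and stained their nuclei (final 0.05% Triton X-100, 1% formaldehyde, 1 ug/ml Hoechst), and nuclei were counted on 4× images. Relative viability is the nuclei count in treated wells divided by the count in vehicle wells, and each value is the median of duplicate plates.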

[2] = compound: CCN(CCO)CCCC(C)Nc1ccnc2cc(Cl)ccc12 [Hydroxychloroquine] + CC1(C)CCC(c2ccc(Cl)cc2)=C(CN2CCN(c3ccc(C(=O)NS(=O)(=O)c4ccc(N[C@H](CCN5CCOCC5)CSc5ccccc5)c(S(=O)(=O)C(F)(F)F)c4)cc3)CC2)C1 [Navitoclax] (partner 0.5 µM)
Method in brief: as §1

[3] = compound: CCN(CCO)CCCC(C)Nc1ccnc2cc(Cl)ccc12 [Hydroxychloroquine] + COc1cc2c(Oc3ccc(NC(=O)C4(C(=O)Nc5ccc(F)cc5)CC4)cc3F)ccnc2cc1OCCCN1CCOCC1 [Foretinib] (partner 0.25 µM)
Method in brief: as §1

[4] = compound: CCN(CCO)CCCC(C)Nc1ccnc2cc(Cl)ccc12 [Hydroxychloroquine] + CS(=O)(=O)CCNCc1ccc(-c2ccc3ncnc(Nc4ccc(OCc5cccc(F)c5)c(Cl)c4)c3c2)o1 [Lapatinib] (partner 2 µM)
Method in brief: as §1

[5] = compound: CCN(CCO)CCCC(C)Nc1ccnc2cc(Cl)ccc12 [Hydroxychloroquine] + CS(=O)(=O)N1CCN(Cc2cc3nc(-c4cccc5[nH]ncc45)nc(N4CCOCC4)c3s2)CC1 [Pictilisib] (partner 1 µM)
Method in brief: as §1

[6] = compound: CCN(CCO)CCCC(C)Nc1ccnc2cc(Cl)ccc12 [Hydroxychloroquine] + C[C@@H](Oc1cc(-c2cnn(C3CCNCC3)c2)cnc1N)c1c(Cl)ccc(F)c1Cl [Crizotinib] (partner 1 µM)
Method in brief: as §1

[7] = compound: CCN(CCO)CCCC(C)Nc1ccnc2cc(Cl)ccc12 [Hydroxychloroquine] + C[C@]1(O)C[C@@H](c2nc(-c3ccc4ccc(-c5ccccc5)nc4c3)c3c(N)nccn32)C1 [Linsitinib] (partner 1 µM)
Method in brief: as §1

[8] = compound: CCN(CCO)CCCC(C)Nc1ccnc2cc(Cl)ccc12 [Hydroxychloroquine] + Cc1nc(NC(=O)N2CCC[C@H]2C(N)=O)sc1-c1ccnc(C(C)(C)C(F)(F)F)c1 [Alpelisib] (partner 2 µM)
Method in brief: as §1

[9] = compound: CCN(CCO)CCCC(C)Nc1ccnc2cc(Cl)ccc12 [Hydroxychloroquine] + O=C(c1cc(Cc2n[nH]c(=O)c3ccccc23)ccc1F)N1CCN(C(=O)C2CC2)CC1 [Olaparib] (partner 8 µM)
Method in brief: as §1

## Calu-6
Hydroxychloroquine; 0.5 µM
  relative viability: 1.04
Hydroxychloroquine; 1.581 µM
  relative viability: 1.03
Hydroxychloroquine; 5 µM
  relative viability: 1
Hydroxychloroquine; 15.81 µM
  relative viability: 1.1
Hydroxychloroquine; 50 µM
  relative viability: 1
[1]; first compound 0.5 µM
  relative viability: 1
[1]; first compound 1.581 µM
  relative viability: 1.08
[1]; first compound 5 µM
  relative viability: 0.954
[1]; first compound 15.81 µM
  relative viability: 1
[1]; first compound 50 µM
  relative viability: 0.922
[2]; first compound 0.5 µM
  relative viability: 0.852
[2]; first compound 1.581 µM
  relative viability: 0.883
[2]; first compound 5 µM
  relative viability: 0.836
[2]; first compound 15.81 µM
  relative viability: 0.731
[2]; first compound 50 µM
  relative viability: 0.823
[3]; first compound 0.5 µM
  relative viability: 0.922
[3]; first compound 1.581 µM
  relative viability: 0.855
[3]; first compound 5 µM
  relative viability: 0.888
[3]; first compound 15.81 µM
  relative viability: 0.872
[3]; first compound 50 µM
  relative viability: 0.879
[4]; first compound 0.5 µM
  relative viability: 1.05
[4]; first compound 1.581 µM
  relative viability: 1.18
[4]; first compound 5 µM
  relative viability: 0.991
[4]; first compound 15.81 µM
  relative viability: 1.02
[4]; first compound 50 µM
  relative viability: 1.01
[5]; first compound 0.5 µM
  relative viability: 0.997
[5]; first compound 1.581 µM
  relative viability: 0.785
[5]; first compound 5 µM
  relative viability: 0.949
[5]; first compound 15.81 µM
  relative viability: 0.962
[5]; first compound 50 µM
  relative viability: 0.986
[6]; first compound 0.5 µM
  relative viability: 0.84
[6]; first compound 1.581 µM
  relative viability: 0.855
[6]; first compound 5 µM
  relative viability: 0.847
[6]; first compound 15.81 µM
  relative viability: 0.896
[6]; first compound 50 µM
  relative viability: 0.579
[7]; first compound 0.5 µM
  relative viability: 0.864
[7]; first compound 1.581 µM
  relative viability: 0.881
[7]; first compound 5 µM
  relative viability: 1.11
[7]; first compound 15.81 µM
  relative viability: 0.938
[7]; first compound 50 µM
  relative viability: 0.942
[8]; first compound 0.5 µM
  relative viability: 1.01
[8]; first compound 1.581 µM
  relative viability: 0.881
[8]; first compound 5 µM
  relative viability: 0.896
[8]; first compound 15.81 µM
  relative viability: 0.939
[8]; first compound 50 µM
  relative viability: 0.924
[9]; first compound 0.5 µM
  relative viability: 0.65
[9]; first compound 1.581 µM
  relative viability: 0.607
[9]; first compound 5 µM
  relative viability: 0.615
[9]; first compound 15.81 µM
  relative viability: 0.673
[9]; first compound 50 µM
  relative viability: 0.569
